According to patent publication US20060111388A1, “Phenanthroline and derivatives thereof used to lower intraocular pressure in an affected eye” (University of North Texas Health Science Center at Fort …, priority 2004, published 2006):
pKi: −log10 of the molar value. Blank lines part the entries; values can stand above or below the molecule they belong to.

Key:
[1] = test system: Morrison rat model eye with elevated intraocular pressure; assay: Morrison rat model for glaucoma, IOP by tonometer after topical application; format: in vivo
Text: The Intraocular Pressure (“IOP”) in a rat eye was lowered following treatment of the eye with about a 1% (w/v) phenanthroline solution. Briefly, the IOP was elevated in one eye for rats grouped as specified below by using the method as described by Morrison et al (1997). […] The other eyes was used as a control. Rats were housed post-surgically in constant low light (<90 lux) to minimize effects of circadian influences on IOP. Five rats were used per treatment group.
A solution of 1,7-phenanthroline was prepared by dissolving 10 mg of 1,7-phenanthroline in 32 μl methanol (100%) forming a concentrated 1,7-phenanthroline solution. About 3 μl of the concentrated 1,7-phenanthroline solution was then added to 96 μl of saline (0.9% NaCl) to form a working 1,7-phenanthroline solution. The working 1,7-phenanthroline solution was then used in the eye of the Morrison Model of Glaucoma. The average intraocular pressure (IOP) in Morrison model eye was 26.22 (average of nine readings) prior to application of the working 1,7-phenanthroline solution. In contrast, the IOP measured 6 hr after application of the working 1,7-phenanthroline solution dropped to 25.66, as shown in FIG. 6A.
(§1) A solution of 4,7-dihydroxy-1,10-phenanthroline was prepared by dissolving 7 mg of 4,7-dihydroxy-1,10-phenanthroline in 22 μl methanol, 30 μl 1 N NaOH, and 626 μl of saline (0.9% NaCl) forming a 4,7-dihydroxy-1,10-phenanthroline solution having a pH of about 10.42. […] The 4,7-dihydroxy-1,10-phenanthroline solution was centrifuged at 10,000×g for about 5 min to remove the precipitate. The clear supernatant was removed and used for testing the Morrison model eye. The average intraocular pressure (IOP) in the eye with elevated pressure was 27.77 (average of nine readings) prior to application of the drug.
(§2) A solution of 1,10-phenanthroline 5,6-dione was prepared by dissolving 7 mg of 1,10-phenanthroline 5,6-dione in 44 μl methanol, and 88 μl dimethylsulfoxide (DMSO). […] The 1,10-phenanthroline 5,6-dione solution with precipitate was centrifuged at 10,000×g for 5 min, and the clear supernatant was removed. 6 μl of the supernatant plus 97 μl of saline formed the working solution used in the Morison model of glaucoma. The average intraocular pressure (IOP) in eye with elevated pressure was 27.66 (average of nine readings) prior to application of the drug.

[2] = Solubility observed while preparing the test solution; format: physicochemical
Description: as §1, §2

patients = patients treated with latanoprost; cited from earlier work
thermolysin = molecular target: T1, thermolysin (Bacillus thermoproteolyticus, UniProt P00800); conditions: reversible inhibitor; cited from earlier work
T1 sequence (P00800 233-548): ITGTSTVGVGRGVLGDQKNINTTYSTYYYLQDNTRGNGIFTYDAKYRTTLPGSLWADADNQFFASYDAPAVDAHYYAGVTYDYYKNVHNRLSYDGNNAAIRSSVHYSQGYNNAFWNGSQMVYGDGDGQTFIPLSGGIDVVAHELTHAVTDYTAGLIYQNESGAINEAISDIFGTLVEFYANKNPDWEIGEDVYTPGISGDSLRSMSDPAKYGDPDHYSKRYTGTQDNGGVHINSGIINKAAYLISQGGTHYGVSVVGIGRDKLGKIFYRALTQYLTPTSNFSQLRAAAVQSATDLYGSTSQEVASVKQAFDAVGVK

Structure (SMILES): c1cnc2c(c1)ccc1ncccc12 [1,7-phenanthroline]
IOP measured 6 hr after application (FIG. 6A) ([1]; working solution: 10 mg in 32 μl methanol, 3 μl added to 96 μl saline, average IOP 26.22 (nine readings) prior to application): 25.66

solubility in methanol and DMSO ([2]; 7 mg in 44 μl methanol and 88 μl dimethylsulfoxide): the entire drug was not solubilized
Structure (SMILES): O=C1C(=O)c2cccnc2-c2ncccc21 [1,10-phenanthroline 5,6-dione]
IOP measured 6 hr after application (FIG. 6C) ([1]; 6 μl supernatant (7 mg in 44 μl methanol, 88 μl DMSO) plus 97 μl saline, average IOP 27.66 (nine readings) prior to application): 25.44

solubility on adjusting solution from pH about 10.42 to pH 7.7 ([2]; 7 mg in 22 μl methanol, 30 μl 1 N NaOH, 626 μl saline, 1N HCl): some precipitation of the drug
Structure (SMILES): Oc1ccnc2c1ccc1c(O)ccnc12 [4,7-dihydroxy-1,10-phenanthroline]
IOP measured 6 hr after application (FIG. 6B) ([1]; clear supernatant of 7 mg in 22 μl methanol, 30 μl 1 N NaOH, 626 μl saline, adjusted to pH 7.7, average IOP 27.77 (nine readings) prior to application): 26.22

Structure (SMILES): CC(C)OC(=O)CCC/C=C\C[C@@H]1[C@@H](CC[C@@H](O)CCc2ccccc2)[C@H](O)C[C@@H]1O [latanoprost, Latanoprost]
increased iris pigmentation, share of patients (patients): up to one in six

Structure (SMILES): c1cnc2c(c1)ccc1cccnc12 [phenanthroline, 1,10-phenanthroline]
intraocular pressure (FIG. 4) ([1]; 1% (w/v) in saline, 20-25 μl topically once, 22 and 27 days following surgery, cohort 2-4-04, IOP measured after 1 hour and 6 hours): decreased
intraocular pressure (FIG. 5) ([1]; 1% phenanthroline, 27 days following surgery, ID#1-17-48 in cohort 2-4-04): decreased
pKi (thermolysin): 4.40
